Measurements published in patent US10189873B2, “Compositions and methods for inhibiting “stimulator of interferon gene”-dependent signalling” (ADURO BIOTECH, INC., priority 2013, dated 2019).

Molecular target: T1, human STING (Homo sapiens, UniProt Q86WV6, G230A/H232R/R293Q/R71H)
T1 construct: THP1-Blue™ ISG cells (a human monocyte cell line transfected with an IRF-inducible secreted embryonic alkaline phosphatase reporter gene); host or cells: THP1-Blue ISG cells (human monocyte cell line)
Assay: Inhibition of ML RR-CDA-mediated induction of type I IFN in THP1-Blue ISG reporter cells (QUANTI-Blue, A655)
Format: cell-based
From the text: To evaluate if the antagonist 2′-O-propargyl-cyclic-[A(2′,5′)pA(3′,5′)p] (ML-propargyl-CDA) can inhibit STING-dependent induction of type I interferon induction by Rp, Rp dithio cyclic [A(2′,5′)pA(3′,5′)p] (ML RR-CDA) in human cells, 4×10^5 THP1-Blue™ ISG cells (a human monocyte cell line transfected with an IRF-inducible secreted embryonic alkaline phosphatase reporter gene (Invivogen) which express alkaline phosphatase under the control of a promoter comprised of five IFN-stimulated response elements) were incubated with 50 μM of Rp, Rp dithio cyclic [A(2′,5′)pA(3′,5′)p] (ML RR-CDA), 10 μM or 50 μM of the antagonist 2′-O-propargyl-cyclic-[A(2′,5′)pA(3′,5′)p] (ML-propargyl-CDA), both 50 μM Rp, Rp dithio cyclic [A(2′,5′)pA(3′,5′)p] (ML RR-CDA) and 10 μM or 50 μM 2′-O-propargyl-cyclic-[A(2′,5′)pA(3′,5′)p] (ML-propargyl-CDA), or 50 μM Rp, Rp dithio cyclic [A(2′,5′)pA(3′,5′)p] (ML RR-CDA) after a 30 min pre-incubation with 10 μM 2′-O-propargyl-cyclic-[A(2′,5′)pA(3′,5′)p] (ML-propargyl-CDA). After 30 minutes, cells were washed and plated in 96-well dish in RPMI media containing 10% FBS, and incubated at 37° C. with 5% CO2. Cell culture supernatants from each sample were collected after 16 hr incubation, and 20 μL of the cell culture supernatants was added to 180 μL QUANTI-Blue reagent (Invivogen) and incubated for 5 minutes to evaluate type I interferon protein levels. Readings at Absorbance 655 nm were measured with a Versa Max kinetic spectrophotometer ([…]).

T1 sequence (Q86WV6 whole entry R71H/G230A/H232R/R293Q): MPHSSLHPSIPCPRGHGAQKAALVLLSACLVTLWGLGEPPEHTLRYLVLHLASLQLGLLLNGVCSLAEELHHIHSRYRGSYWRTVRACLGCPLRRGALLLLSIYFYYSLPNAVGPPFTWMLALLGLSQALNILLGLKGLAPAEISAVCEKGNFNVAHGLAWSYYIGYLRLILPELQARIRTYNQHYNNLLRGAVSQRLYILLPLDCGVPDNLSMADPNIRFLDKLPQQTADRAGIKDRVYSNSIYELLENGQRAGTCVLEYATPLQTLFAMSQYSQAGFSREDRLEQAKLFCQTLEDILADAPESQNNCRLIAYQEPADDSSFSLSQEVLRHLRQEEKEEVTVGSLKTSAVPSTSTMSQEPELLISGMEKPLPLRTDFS

SMILES: C#CCO[C@@H]1[C@@H]2OP(=O)(O)OC[C@H]3O[C@@H](n4cnc5c(N)ncnc54)[C@H](OP(=O)(O)OC[C@H]2O[C@H]1n1cnc2c(N)ncnc21)[C@@H]3O [ML-propargyl-CDA, 2′-O-propargyl-cyclic-A(2′,5′)pA(3′,5′)p]
- inhibition of induction of type I IFN by ML RR-CDA (THP1-Blue ISG cells, 10 μM or 50 μM antagonist added simultaneously with 50 μM ML RR-CDA, FIG. 7A): significantly inhibited
- inhibition of induction of type I interferon by ML RR-CDA (THP1-Blue ISG cells, 30 min pre-incubation with 10 μM antagonist, then 50 μM ML RR-CDA, FIG. 7B): inhibits
- functional character at human STING (concluded from reduction of ML RR-CDA-induced type I IFN production in THP1-Blue ISG cells): antagonist of human STING
